{"source": "paper PMC8876276", "about": "(Pharmaceutics, 2022)", "key": {"[1]": {"test_system": "GLP1R association with early endosomal-associated antigen 1 (EEA1)", "test": "GLP1R colocalization with early endosome marker EEA1, confocal microscopy, GLP1R-HEK293 cells", "type": "cell-based", "settings": "100 nM, 30 min; Pearson's correlation coefficient, 3 independent experiments; Figure 5d", "procedure": "For immunofluorescence microscopy, GLP1R-HEK293 cells were seeded at a density of 25,000 cells/well in 96-well imaging plates (Greiner Bio-One) coated with poly-D-lysine. […] Twenty-four hours later, the cells were washed once with Optimem + Glutamax (Thermo Fisher Scientific, Watham, MA, USA) + 0.1% bovine serum albumin (BSA) (Sigma-Aldrich, St. Louis, MO, USA), and then incubated with Optimem + 0.1% BSA for 15 min at 37 °C. Compounds were diluted in Optimem + 0.1% BSA and cell incubations were performed at 37 °C for the timepoints indicated. The compounds were removed and the cells were washed three times with phosphate-buffered saline (PBS) prior to fixation for immunofluorescence microscopy or electron microscopy/NanoSIMS as described below. […]\nAnalysis of confocal microscopy micrographs was performed using scripts developed in Columbus analysis software (PerkinElmer, Waltham, MA, USA). […] Mean fluorescence intensity for the GLP1R staining was measured from this cell membrane ROI. Fluorescence intensities were normalized to those measured from untreated cells and expressed as mean per cell per well. For colocalization analyses, Pearson’s correlation co-efficient was calculated for the correlation between the red and green channels and expressed as mean per cell per well. […]\nPearson’s correlation co-efficient for GLP1R colocalization with EEA1 was calculated from cytoplasmic ROIs (d). […]"}, "[2]": {"test_system": "GLP1R localization with the late endosome marker LAMP1", "test": "GLP1R colocalization with late endosome marker LAMP1, confocal microscopy, GLP1R-HEK293 cells", "type": "cell-based", "settings": "100 nM, 30 min; Pearson's correlation coefficient, 3 independent experiments; Figure 6d", "from_the_text": "Nuclei were counterstained with DAPI. Nuclei were counterstained with DAPI."}}}
{"substance": "exenatide", "values": [{"measurement": "GLP1R colocalization with EEA1", "setting": "[1]", "value": "GLP1R colocalization with EEA1 was observed"}, {"measurement": "GLP1R colocalization with LAMP1", "setting": "[2]", "value": "increase in the GLP1R colocalization with LAMP1"}]}
